Patent US20170051034A1 (Novo Nordisk A/S, priority 2010, published 2017)
Numbered stars: 1 amine (or outer) side, 2 acyl side, 3 side chain; on linkers, the order of the positions; unused ones are H or OH. Square brackets hold non-standard residues; d marks the D form. Side chains are listed from the residue outwards. Peptide text beside a SMILES is read from it. * marks the point of attachment. C18 diacid = O=C(O)CCCCCCCCCCCCCCCCC(=O)*; γGlu = O=C(O)[C@H](CCC(=O)[*:2])N[*:1]; Orn = NCCC[C@H](N)C(=O)O; AEEA = NCCOCCOCC(=O)O

Experiments:
glucagon receptor = glucagon receptor (Homo sapiens, UniProt P47871); test: cell-based
Chain of glucagon receptor (P47871 26-477): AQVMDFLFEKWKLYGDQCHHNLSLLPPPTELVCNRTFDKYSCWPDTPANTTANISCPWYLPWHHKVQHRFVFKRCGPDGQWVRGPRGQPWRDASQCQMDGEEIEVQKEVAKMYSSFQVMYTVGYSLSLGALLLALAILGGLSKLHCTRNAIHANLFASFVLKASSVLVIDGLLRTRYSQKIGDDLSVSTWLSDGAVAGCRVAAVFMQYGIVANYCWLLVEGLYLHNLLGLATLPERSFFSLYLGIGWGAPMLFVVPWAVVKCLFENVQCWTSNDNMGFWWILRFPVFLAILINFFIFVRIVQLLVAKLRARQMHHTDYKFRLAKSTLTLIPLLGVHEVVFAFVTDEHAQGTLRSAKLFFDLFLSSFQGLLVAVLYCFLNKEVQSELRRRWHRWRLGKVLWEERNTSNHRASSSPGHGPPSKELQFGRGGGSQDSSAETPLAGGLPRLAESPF
Experimental: The cells (14000 per well) were incubated (37° C., 5% CO2) overnight in 384-well plates. Next day the cells were loaded with a calcium responsive dye that only distributed into the cytoplasm. Probenecid, an inhibitor of the organic anion transporter, was added to prevent the dye from leaving the cell. A PDE inhibitor was added to prevent formatted cAMP from being degraded. […] End point data were collected after 6 minutes. An increase in intracellular cAMP was proportional to an increased in calcium concentrations in the cytoplasm. […] EC50-values were calculated in Prism5.

[1] = ThT fibrillation assay (lag time and recovery); format: physicochemical; details: Table 2
Experimental: This has traditionally been measured by visual inspection of the sample. However, that kind of measurement is very subjective and depending on the observer. Therefore, the application of a small molecule indicator probe is much more advantageous. […] Enzymol.
The constant t0 is the time needed to reach 50% of maximum fluorescence. The two important parameters describing fibril formation are the lag-time calculated by t0−2τ and the apparent rate constant kapp 1/τ.
Samples were prepared freshly before each assay. […] The pH of the sample was adjusted to the desired value using appropriate amounts of concentrated NaOH and HCl. Thioflavin T was added to the samples from a stock solution in H2O to a final concentration of 1 μM.
The plate was sealed with Scotch Pad (Qiagen).
Each run was initiated by incubating the plate at the assay temperature for 10 min. The plate was measured every 20 minutes for a desired period of time. Between each measurement, the plate was shaken and heated as described.
The supernatant was filtered through a 0.22 μm filter and an aliquot was transferred to a HPLC vial.
The measurement points were saved in Microsoft Excel format for further processing and curve drawing and fitting was performed using GraphPad Prism. […] The data set may be fitted to Eq. (1).

Row | Structure (SMILES) | EC50 (glucagon receptor) [nM] | ThT assay [Lag time] [1] [h]
1 | CC(C)C[C@H](NC(=O)[C@H](Cc1ccc(O)cc1)NC(=O)[C@H](CCCCN)NC(=O)[C@H](CO)NC(=O)[C@H](Cc1ccc(O)cc1)NC(=O)[C@H](CC(=O)O)NC(=O)[C@H](CO)NC(=O)[C@@H](NC(=O)[C@H](Cc1ccccc1)NC(=O)[C@@H](NC(=O)CNC(=O)[C@H](CCC(N)=O)NC(=O)[C@H](CO)NC(=O)[C@@H](N)Cc1c[nH]cn1)[C@@H](C)O)[C@@H](C)O)C(=O)N[C@@H](CC(=O)O)C(=O)N[C@@H](CO)C(=O)N[C@@H](CCCCN)C(=O)N[C@@H](CCCCN)C(=O)N[C@@H](C)C(=O)N[C@@H](CCC(N)=O)C(=O)N[C@@H](CCC(=O)O)C(=O)N[C@@H](Cc1ccccc1)C(=O)N[C@H](C(=O)N[C@@H](CCCCNC(=O)COCCOCCNC(=O)COCCOCCNC(=O)[C@H](CCC(=O)O)NC(=O)CCCCCCCCCCCCCCCCC(=O)O)C(=O)N[C@@H](Cc1c[nH]c2ccccc12)C(=O)N[C@@H](CC(C)C)C(=O)N[C@@H](CC(C)C)C(=O)N[C@@H](CO)C(=O)N[C@H](C(=O)O)[C@@H](C)O)C(C)C [Example 72, N^ε24-[2-[2-[2-[[2-[2-[2-[[(2S)-4-carboxy-2-(17-carboxyheptadecanoylamino)butanoyl]amino]ethoxy]ethoxy]acetyl]amino]ethoxy]ethoxy]acetyl]-[Lys17,Lys18,Glu21,Lys24,Leu27,Ser28]-Glucagon] (H-HSQGTFTSDYSKYLDSKKAQEFVK([AEEA-AEEA-Glu-C18 diacid])WLLST-OH) | 0.057 | 
2 | CC(C)C[C@H](NC(=O)[C@H](Cc1ccc(O)cc1)NC(=O)[C@H](CCCCN)NC(=O)[C@H](CO)NC(=O)[C@H](Cc1ccc(O)cc1)NC(=O)[C@H](CC(=O)O)NC(=O)[C@H](CO)NC(=O)[C@@H](NC(=O)[C@H](Cc1ccccc1)NC(=O)[C@@H](NC(=O)CNC(=O)[C@H](CCC(N)=O)NC(=O)[C@H](CO)NC(=O)[C@@H](N)Cc1c[nH]cn1)[C@@H](C)O)[C@@H](C)O)C(=O)N[C@@H](CC(=O)O)C(=O)N[C@@H](CO)C(=O)N[C@@H](CCCCN)C(=O)N[C@@H](CCCCN)C(=O)N[C@@H](C)C(=O)N[C@@H](CCC(N)=O)C(=O)N[C@@H](CCC(=O)O)C(=O)N[C@@H](Cc1ccccc1)C(=O)N[C@H](C(=O)N[C@@H](CCCNC(=O)COCCOCCNC(=O)COCCOCCNC(=O)CC[C@H](NC(=O)CCCCCCCCCCCCCCCCC(=O)O)C(=O)O)C(=O)N[C@@H](Cc1c[nH]c2ccccc12)C(=O)N[C@@H](CC(C)C)C(=O)N[C@@H](CC(C)C)C(=O)N[C@@H](CO)C(=O)N[C@H](C(=O)O)[C@@H](C)O)C(C)C [Example 73, N^ε24-[2-[2-[2-[[2-[2-[2-[[(4S)-4-carboxy-4-(17-carboxyheptadecanoylamino)butanoyl]amino]ethoxy]ethoxy]acetyl]amino]ethoxy]ethoxy]acetyl]-[Lys^17,Lys^18,Glu^21,Orn^24,Leu^27,Ser^28]-Glucagon] (H-HSQGTFTSDYSKYLDSKKAQEFV[Orn]([AEEA-AEEA-γGlu-C18 diacid])WLLST-OH) | 0.036 | 
3 | CC(C)C[C@H](NC(=O)[C@H](Cc1ccc(O)cc1)NC(=O)[C@H](CCCCN)NC(=O)[C@H](CO)NC(=O)[C@H](Cc1ccc(O)cc1)NC(=O)[C@H](CC(=O)O)NC(=O)[C@H](CO)NC(=O)[C@@H](NC(=O)[C@H](Cc1ccccc1)NC(=O)[C@@H](NC(=O)CNC(=O)[C@H](CCC(N)=O)NC(=O)[C@H](CO)NC(=O)[C@@H](N)Cc1c[nH]cn1)[C@@H](C)O)[C@@H](C)O)C(=O)N[C@@H](CC(=O)O)C(=O)N[C@@H](CO)C(=O)N[C@@H](CCCCN)C(=O)N[C@@H](CCCCN)C(=O)N[C@@H](C)C(=O)N[C@@H](CCC(N)=O)C(=O)N[C@@H](CCC(=O)O)C(=O)N[C@@H](Cc1ccccc1)C(=O)N[C@H](C(=O)N[C@@H](CCC(N)=O)C(=O)N[C@@H](Cc1c[nH]c2ccccc12)C(=O)N[C@@H](CC(C)C)C(=O)N[C@@H](CC(C)C)C(=O)N[C@@H](CC(N)=O)C(=O)N[C@H](C(=O)O)[C@@H](C)O)C(C)C [[K^17, K^18, E^21, L^27] Glucagon, H—HSQGTFTSDYSKYLDSKKAQEFVQWLLNT—OH, reference compound] (H-HSQGTFTSDYSKYLDSKKAQEFVQWLLNT-OH) | 0.003 | 1
